Values after ≈ are worked out from the molar mass of the structure shown.
Experiments:
Candida albicans [1] = experiment: Antifungal activity against fluconazole-resistant Candida albicans NCIM 3446 after 48 hr by broth dilution method; format: functional; settings: NCIM 3446, 48 h
Candida albicans [2] = experiment: Antifungal activity against fluconazole-sensitive Candida albicans ATCC 10231 after 48 hr by broth dilution method; format: functional; settings: ATCC 10231, 48 h

| Compound | MIC (Candida albicans [1]) [µg/mL] | MIC (Candida albicans [2]) [µg/mL] |
| --- | --- | --- |
| CSc1ccc(/C=C/C(=O)c2ccccc2O)cc1 | 20 (≈ 74 µM) | 20 (≈ 74 µM) |
| CSc1ccc(/C=C/C(=O)c2ccc(Br)s2)cc1 | 50 (≈ 147 µM) | 40 (≈ 118 µM) |
| CSc1ccc(/C=C/C(=O)c2ccccc2)cc1 | 40 (≈ 157 µM) | 20 (≈ 78.6 µM) |
| OC(Cn1cncn1)(Cn1cncn1)c1ccc(F)cc1F [FLUCONAZOLE] | 100 (≈ 327 µM) | 20 (≈ 65.3 µM) |
| COc1ccc(C(=O)/C=C/c2ccc(SC)cc2)cc1 | 20 (≈ 70.3 µM) | 10 (≈ 35.2 µM) |
| CSc1ccc(/C=C/C(=O)c2ccc(-c3ccccc3)cc2)cc1 | 250 (≈ 757 µM) | 100 (≈ 303 µM) |
| CSc1ccc(/C=C/C(=O)c2ccc(Cl)cc2)cc1 | 20 (≈ 69.3 µM) | 10 (≈ 34.6 µM) |
| O=C(/C=C/c1ccc(-c2ccccc2)cc1)c1cccs1 | 250 (≈ 861 µM) | 100 (≈ 344 µM) |
| COc1ccc(/C=C/C(=O)c2ccc(Br)s2)cc1 | 100 (≈ 309 µM) | 50 (≈ 155 µM) |
| COc1ccc(C(=O)/C=C/c2ccc(OC)c(OC)c2)cc1 | 10 (≈ 33.5 µM) | 20 (≈ 67 µM) |
| COc1ccc(/C=C/C(=O)c2cccs2)cc1 | 20 (≈ 81.9 µM) | 20 (≈ 81.9 µM) |
| O=C(/C=C/c1ccc(-c2ccccc2)cc1)c1ccc(Br)s1 | 250 (≈ 677 µM) | 100 (≈ 271 µM) |
| CSc1ccc(/C=C/C(=O)c2ccc(Br)cc2)cc1 | 100 (≈ 300 µM) | 40 (≈ 120 µM) |
| CSc1ccc(/C=C/C(=O)c2cccs2)cc1 | 5 (≈ 19.2 µM) | 5 (≈ 19.2 µM) |
| COc1ccc(/C=C/C(=O)c2cccs2)cc1OC | 20 (≈ 72.9 µM) | 10 (≈ 36.5 µM) |
| CSc1ccc(/C=C/C(=O)c2ccc([N+](=O)[O-])cc2)cc1 | 100 (≈ 334 µM) | 50 (≈ 167 µM) |
| CSc1ccc(/C=C/C(=O)c2ccc(Cl)cc2Cl)cc1 | 200 (≈ 619 µM) | 50 (≈ 155 µM) |
| CSc1ccc(/C=C/C(=O)c2ccc(F)cc2)cc1 | 8 (≈ 29.4 µM) | 5 (≈ 18.4 µM) |
| CSc1ccc(/C=C/C(=O)c2ccc(O)cc2)cc1 | 40 (≈ 148 µM) | 20 (≈ 74 µM) |
| CSc1ccc(/C=C/C(=O)c2cccc(O)c2)cc1 | 40 (≈ 148 µM) | 20 (≈ 74 µM) |
| COc1ccc(/C=C/C(=O)c2ccc(Br)s2)cc1OC | 100 (≈ 283 µM) | 50 (≈ 142 µM) |
